Patent publication US6358883B1, “Pesticidal and parasiticidal use of 1-aryl-1-(substituted thio, sulfinyl and sulfonyl)-2-nitroethane compounds” (American Cyanamid Company, priority 1998, dated 2002)

Legend:
Type in all cases: in vivo
[1] = system: C. elegans (Bristol strain); experiment: Evaluation of test compounds against C. elegans (motility, 96-well plate); parameters: key: 9=complete kill in 4 hours; 8=complete kill in 24 hours; 7=markedly reduced motility in approximately 95% of worms in 24 hours; 0=normal motility, same as controls; settings: motility at 4 and 24 hours
Method in brief: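 Activity is a semi-quantitative visual score of adult and larval movement, read at 4 h and 24 h post-immersion at 20 °C after gentle tapping. Worms were suspended in Na buffer in wells where compound, dissolved in 80% acetone, had been evaporated.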

[2] = system: Spodoptera eridania, 2nd instar larvae, southern armyworm (SAW); experiment: Southern armyworm (SAW) leaf dip test; parameters: key: 0 = no effect; 1 = 10-25% kill; 2 = 26-35% kill; 3 = 36-45% kill; 4 = 46-55% kill; 5 = 56-65% kill; 6 = 66-75% kill; 7 = 76-85% kill; 8 = 86-99% kill; 9 = 100% kill
Method in brief: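 Ten 2nd instar caterpillars feed on a Sieva lima bean leaf that was dipped 3 seconds in test solution (stock 10,000 ppm in 35% acetone/water, water-diluted). Five days later, larvae are assessed for death, feeding reduction or abnormal molting.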

[3] = system: Diabrotica virgifera virgifera Leconte, 2nd instar western corn rootworm (WCR); experiment: Western corn rootworm (WCR) soil test; parameters: key: 0 = no effect; 1 = 10-25% kill; 2 = 26-35% kill; 3 = 36-45% kill; 4 = 46-55% kill; 5 = 56-65% kill; 6 = 66-75% kill; 7 = 76-85% kill; 8 = 86-99% kill; 9 = 100% kill
Method in brief: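 Ten 2nd-instar rootworm larvae are placed in jars of moist soil with millet seed and talc treated with 1.25 mg active ingredient (roughly 50 kg/ha) from a 35% acetone-in-water solution. After 5 days mortality is scored, counting missing larvae as dead.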

[4] = system: Tetranychus urticae (OP-resistant strain), 2-spotted spider mite (TSM); experiment: 2-spotted spider mite (TSM) plant dip test; parameters: key: 0 = no effect; 1 = 10-25% kill; 2 = 26-35% kill; 3 = 36-45% kill; 4 = 46-55% kill; 5 = 56-65% kill; 6 = 66-75% kill; 7 = 76-85% kill; 8 = 86-99% kill; 9 = 100% kill; settings: mortality after 2 days
Method in brief: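 Mortality counted 2 days after a 3 s agitated dip of infested Sieva lima bean plants. Compound came from a 10,000 ppm stock in 35% aqueous acetone, with further dilution in water. Each primary leaf carried about 100 OP-resistant mites, allowed to settle ~2 h before dipping.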

[5] = system: Aphis gossypii, cotton aphid (CA); experiment: Cotton aphid (CA) cotyledon dip test; parameters: key: 0 = no effect; 1 = 10-25% kill; 2 = 26-35% kill; 3 = 36-45% kill; 4 = 46-55% kill; 5 = 56-65% kill; 6 = 66-75% kill; 7 = 76-85% kill; 8 = 86-99% kill; 9 = 100% kill; settings: mortality after 5 days
Method in brief: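 Mortality was scored 5 days after dipping aphid-infested cotyledons, colonised overnight from a transfer leaf, into water dilutions of a 35% acetone/water compound solution.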

[6] = system: Spodoptera eridania, eggs-southern armyworm (SAW-Eggs); experiment: Southern armyworm eggs (SAW-Eggs) treated diet test; parameters: key: 0 = no effect; 1 = 10-25% kill; 2 = 26-35% kill; 3 = 36-45% kill; 4 = 46-55% kill; 5 = 56-65% kill; 6 = 66-75% kill; 7 = 76-85% kill; 8 = 86-99% kill; 9 = 100% kill; settings: mortality after 7 days
Protocol: Test solutions are prepared by dissolving the test compound in a 35% acetone in water mixture to give a concentration of 10,000 ppm. Subsequent dilutions are made with water as needed. Spodoptera eridania, Eggs-southern Armyworm and Diabrotica undecimpunctata howardi, Eggs-southern Corn Rootworm (SAW-Eggs) and (SCR-Eggs) Wells containing artificial diet are treated with the test solutions and dried. The appropriate insect eggs are then placed in the wells. The wells are covered with vented, adhesive, clear plastic covers. After 7 days, mortality counts are made. [table]

[7] = system: Diabrotica undecimpunctata howardi, eggs-southern corn rootworm (SCR-Eggs); experiment: Southern corn rootworm eggs (SCR-Eggs) treated diet test; parameters: key: 0 = no effect; 1 = 10-25% kill; 2 = 26-35% kill; 3 = 36-45% kill; 4 = 46-55% kill; 5 = 56-65% kill; 6 = 66-75% kill; 7 = 76-85% kill; 8 = 86-99% kill; 9 = 100% kill; settings: mortality after 7 days
Method in brief: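 Eggs of S. eridania or D. undecimpunctata howardi were set on artificial diet pretreated with test solution (10,000 ppm stock in 35% aqueous acetone, water dilutions) and dried. Wells were sealed with vented clear covers, and mortality was scored at day 7.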

[8] = system: M. incognita (Root Knot Nematode) larvae; experiment: Evaluation of test compounds against M. incognita larvae in microtiter plate wells (movement score); settings: larvae scored for movement after 20-24 hours; also: key: A score of '9' indicates inactive worms with a straight, sticklike morphology; A score of '8' indicates inactive worms with a limp, curled or curved morphology; A score of '7' indicates dead/paralyzed worms after 72 hours
Method in brief: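 Scoring is by larval movement: dead or paralyzed worms count as positive, and a "7" means dead/paralyzed at 72 hours. Freshly hatched root-knot larvae (50-65 per well) in buffered S Medium were incubated with compounds under plate sealers for 20-24 h before the first read.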

| SMILES | Rating Against C. elegans (150 ppm) [1] | SAW (300 ppm) rating [2] | WCR (50 ppm) rating [3] | TSM (300 ppm) rating [4] | CA (300 ppm) rating [5] | SAW Eggs (300 ppm) rating [6] | SCR Eggs (1000 ppm) rating [7] | M. incognita (150 ppm) score [8] |
| --- | --- | --- | --- | --- | --- | --- | --- | --- |
| COC(=O)CSc1c(F)c(F)c(C(C[N+](=O)[O-])SCC(=O)OC)c(F)c1F (stereo not shown) [Example 141] | 8 | 0 | 0 | 0 | 0 | 0 | 0 |  |
| COc1cccc(C(C[N+](=O)[O-])SCc2ccco2)c1 (stereo not shown) [Example 158] | 9 | 0 | 0 | 0 | 0 | 0 | 0 |  |
| O=[N+]([O-])CC(SCc1ccccc1)c1c(F)c(F)c(SCc2ccccc2)c(F)c1F (stereo not shown) [Example 149] | 0 | 0 | 0 | 0 | 0 | 0 | 0 |  |
| C=CCSC(C[N+](=O)[O-])c1cc(OC)cc(OC)c1 (stereo not shown) [Example 3] | 0 |  |  |  |  | 0 | 0 |  |
| COC(=O)CSC(C[N+](=O)[O-])c1ccco1 (stereo not shown) [Example 197] |  | 0 | 0 | 0 | 5 (5 = 56-65% kill) | 9 (9 = 100% kill) | 0 | 9 |
| CCOC(=O)CSc1c(F)c(F)c(C(C[N+](=O)[O-])SCC(=O)OCC)c(F)c1F (stereo not shown) [Example 143] | 0 | 0 | 0 | 0 | 0 | 0 | 0 |  |
| O=C(O)CSC(C[N+](=O)[O-])c1cccnc1 (stereo not shown) [Example 179] |  | 0 | 0 | 0 | 0 | 0 | 0 | 9 |
| CCOC(=O)CSC(C[N+](=O)[O-])c1ccco1 (stereo not shown) [Example 198] |  | 0 | 7 (7 = 76-85% kill) | 0 | 0 | 9 (9 = 100% kill) | 0 | 9 |
| O=C(O)CSC(C[N+](=O)[O-])c1cccs1 (stereo not shown) [Example 181] |  | 0 | 0 | 0 | 0 | 9 (9 = 100% kill) | 0 | 9 |
| CCCCOC(=O)CSC(C[N+](=O)[O-])c1c(F)c(F)c(F)c(F)c1F (stereo not shown) [Example 146] | 7 | 0 | 8 (8 = 86-99% kill) | 0 | 0 | 0 | 0 |  |
| CCCOC(=O)CSc1c(F)c(F)c(C(C[N+](=O)[O-])SCC(=O)OCCC)c(F)c1F (stereo not shown) [Example 145] | 0 | 0 | 0 | 0 | 0 | 0 | 0 |  |
| O=C(O)CSC(C[N+](=O)[O-])c1c(F)c(F)c(F)c(F)c1F (stereo not shown) [Example 139] | 9 | 0 | 9 (9 = 100% kill) | 0 | 0 | 0 | 0 |  |
| O=[N+]([O-])CC(SCc1ccccc1)c1c(F)c(F)c(F)c(F)c1F (stereo not shown) [Example 148] | 0 | 0 | 0 | 0 | 0 | 0 | 0 |  |
| CCCCOC(=O)CSC(C[N+](=O)[O-])c1ccco1 (stereo not shown) [Example 200] |  | 0 | 4 (4 = 46-55% kill) | 0 | 0 | 9 (9 = 100% kill) | 0 | 9 |
| CCCOC(=O)CSC(C[N+](=O)[O-])c1ccco1 (stereo not shown) [Example 199] |  | 0 | 8 (8 = 86-99% kill) | 0 | 0 | 9 (9 = 100% kill) | 0 | 9 |
| CCCSC(C[N+](=O)[O-])c1ccco1 (stereo not shown) [Example 201] |  | 0 | 7 (7 = 76-85% kill) | 0 | 0 | 0 | 0 | 0 |
| O=C(O)CSC(C[N+](=O)[O-])c1ccco1 (stereo not shown) [Example 196] |  | 0 | 9 (9 = 100% kill) | 0 | 0 | 0 | 0 | 9 |
